Experimental data: ChEMBL document CHEMBL1201862, “PubChem BioAssay data set” (2004)
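A five-concentration, 48-hour dose response in 96-well plates underlies each endpoint, interpolated linearly between surrounding concentrations. GI50 is the concentration that inhibits growth by half.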 Calls of active or inactive are those of the source. Rule as the data show it: active = GI50 up to about 1.1 µM and inactive = higher.

Columns and labels:
Experiment in all cases: NCI tumour cell line growth inhibition, 48 h
786-0 = test system: 786-0
A498 = test system: A498
A549 = test system: A549
ACHN = test system: ACHN
DU-145 = test system: DU-145
EKVX = test system: EKVX
HCC 2998 = test system: HCC 2998
HCT-116 = test system: HCT-116
HL-60 = test system: HL-60
K562 = test system: K562
KM12 = test system: KM12
M14 = test system: M14
Malme-3M = test system: Malme-3M
NCI-H226 = test system: NCI-H226
NCI/ADR-RES = test system: NCI/ADR-RES
OVCAR-4 = test system: OVCAR-4
RPMI-8226 = test system: RPMI-8226
SF-268 = test system: SF-268
SNB-75 = test system: SNB-75
UACC-62 = test system: UACC-62

COc1ccc(P2(=S)Oc3ccc(C(c4ccccc4)(c4ccccc4)c4ccccc4)cc3O2)cc1 (stereo not given)
GI50 (786-0): 18 µM (inactive)
GI50 (A498): 17.7 µM (inactive)
GI50 (A549): 16.6 µM (inactive)
GI50 (ACHN): 16.7 µM (inactive)
GI50 (DU-145): 20.5 µM (inactive)
GI50 (EKVX): 20.2 µM (inactive)
GI50 (HCC 2998): 16.3 µM (inactive)
GI50 (HCT-116): 17.8 µM (inactive)
GI50 (HL-60): 15.5 µM (inactive)
GI50 (K562): 17.8 µM (inactive)
GI50 (KM12): 15 µM (inactive)
GI50 (M14): 14.1 µM (inactive)
GI50 (Malme-3M): 20 µM (inactive)
GI50 (NCI-H226): 16.6 µM (inactive)
GI50 (NCI/ADR-RES): 20.6 µM (inactive)
GI50 (OVCAR-4): 13.2 µM (inactive)
GI50 (RPMI-8226): 23 µM (inactive)
GI50 (SF-268): 17.2 µM (inactive)
GI50 (SNB-75): 13.7 µM (inactive)
GI50 (UACC-62): 13.4 µM (inactive)

COc1ccc(C2CC(c3ccc(NS(=O)(=O)c4cc([N+](=O)[O-])ccc4C)cc3)=NN2S(=O)(=O)c2cc([N+](=O)[O-])ccc2C)cc1 (stereo not given)
GI50 (786-0): 88.5 µM (inactive)
GI50 (A498): 49.3 µM (inactive)
GI50 (A549): 34.5 µM (inactive)
GI50 (ACHN): 63.4 µM (inactive)
GI50 (DU-145): > 100 µM (inactive)
GI50 (EKVX): 39.7 µM (inactive)
GI50 (HCC 2998): 10.5 µM (inactive)
GI50 (HCT-116): 32.7 µM (inactive)
GI50 (HL-60): 51.6 µM (inactive)
GI50 (K562): 36.1 µM (inactive)
GI50 (KM12): 46 µM (inactive)
GI50 (M14): 41.1 µM (inactive)
GI50 (Malme-3M): 34.8 µM (inactive)
GI50 (NCI-H226): > 100 µM (inactive)
GI50 (NCI/ADR-RES): 40.8 µM (inactive)
GI50 (OVCAR-4): 40 µM (inactive)
GI50 (RPMI-8226): 23.6 µM (inactive)
GI50 (SF-268): 22.8 µM (inactive)
GI50 (SNB-75): > 100 µM (inactive)
GI50 (UACC-62): 26.4 µM (inactive)

CC(=NNC(=S)Nc1ccc(C)cc1)c1cccc(C(C)=NNC(=S)Nc2ccc(C)cc2)n1
GI50 (786-0): 5.9 µM (inactive)
GI50 (A498): 20.9 µM (inactive)
GI50 (A549): 12.9 µM (inactive)
GI50 (ACHN): 5.66 µM (inactive)
GI50 (DU-145): > 100 µM (inactive)
GI50 (EKVX): 21.5 µM (inactive)
GI50 (HCC 2998): 35.6 µM (inactive)
GI50 (HCT-116): 7.33 µM (inactive)
GI50 (HL-60): 3.97 µM (inactive)
GI50 (K562): 12.2 µM (inactive)
GI50 (KM12): 13.8 µM (inactive)
GI50 (M14): 8.89 µM (inactive)
GI50 (Malme-3M): 2.06 µM (inactive)
GI50 (NCI-H226): 13.7 µM (inactive)
GI50 (NCI/ADR-RES): 5 µM (inactive)
GI50 (OVCAR-4): 10.9 µM (inactive)
GI50 (RPMI-8226): 19.2 µM (inactive)
GI50 (SF-268): > 100 µM (inactive)
GI50 (SNB-75): 4.69 µM (inactive)
GI50 (UACC-62): 7.14 µM (inactive)

CN1c2ccccc2C(=O)NC12CCNCC2
GI50 (786-0): > 100 µM (inactive)
GI50 (A498): > 100 µM (inactive)
GI50 (A549): > 100 µM (inactive)
GI50 (ACHN): > 100 µM (inactive)
GI50 (DU-145): > 100 µM (inactive)
GI50 (EKVX): > 100 µM (inactive)
GI50 (HCC 2998): > 100 µM (inactive)
GI50 (HCT-116): > 100 µM (inactive)
GI50 (HL-60): > 100 µM (inactive)
GI50 (K562): > 100 µM (inactive)
GI50 (KM12): > 100 µM (inactive)
GI50 (M14): > 100 µM (inactive)
GI50 (Malme-3M): > 100 µM (inactive)
GI50 (NCI-H226): > 100 µM (inactive)
GI50 (NCI/ADR-RES): > 100 µM (inactive)
GI50 (OVCAR-4): > 100 µM (inactive)
GI50 (RPMI-8226): > 100 µM (inactive)
GI50 (SF-268): > 100 µM (inactive)
GI50 (SNB-75): > 100 µM (inactive)
GI50 (UACC-62): > 100 µM (inactive)

O=c1[nH]c2ccc([N+](=O)[O-])c(Cl)c2c2ccccc12
GI50 (786-0): 5.78 µM (inactive)
GI50 (A498): 13.2 µM (inactive)
GI50 (A549): 4.7 µM (inactive)
GI50 (ACHN): 4.48 µM (inactive)
GI50 (DU-145): 3.06 µM (inactive)
GI50 (EKVX): 5.9 µM (inactive)
GI50 (HCC 2998): 5.46 µM (inactive)
GI50 (HCT-116): 0.313 µM (active)
GI50 (HL-60): 2.35 µM (inactive)
GI50 (K562): 0.634 µM (active)
GI50 (KM12): 0.33 µM (active)
GI50 (M14): 4.81 µM (inactive)
GI50 (Malme-3M): 11.6 µM (inactive)
GI50 (NCI-H226): 11.5 µM (inactive)
GI50 (NCI/ADR-RES): 4.98 µM (inactive)
GI50 (OVCAR-4): 10.7 µM (inactive)
GI50 (RPMI-8226): 0.586 µM (active)
GI50 (SF-268): 2.74 µM (inactive)
GI50 (SNB-75): 9.04 µM (inactive)
GI50 (UACC-62): 3.79 µM (inactive)
